Patent publication US20050234073A1, “Methods of inhibiting inflammation” (priority 2003, published 2005)

Columns and labels:
C1Rd cells = assay: C1Rd cell CD1d-mediated activation of human peripheral blood derived iNKT cell line with PMA (IFN-gamma); assay type: cell-based; conditions: limiting concentration of PMA
Protocol: FIG. 20E is a line chart showing IFN-gamma production in C1Rd cells cultured with BMS197636 or vehicle and incubated with NKT cell lines derived from human peripheral blood in the presence of 1 ng/mL PMA.
APCs were incubated with 100 ng/mL α-galcer (kindly provided by Dr. H. Ploegh) for 3 hours, washed three times in PBS and aliquoted into a 96 well plate at 10^6 cells/mL. DN32 cells were added at 1:1 E:T ratio unless otherwise indicated. CD4^+ cells were isolated from spleens of OT-II transgenic mice using positive selection on CD4 magnetic beads (Miltenyi Biotec) and incubated with APCs and 100 μg/mL ovalbumin. The 24.8 NKT cell line was incubated with APCs in the absence of added antigen at E:T=2:1 unless otherwise indicated. Mouse IL-2 production was assessed by ELISA (OptEIA, BD PharMingen) of 24 or 40 hour culture supernatants. APCs were treated with BMS212122 (10 uM dissolved in DMSO; kindly provided by Bristol Myers Squibb, New Jersey) as indicated and washed prior to addition of T or NKT cells. […]
C1Rd is a human B cell line transfected with human CD1d. […] Incubation of C1Rd cells with BMS212122, but not the vehicle, inhibited the presentation of α-galcer as determined by a reduction in IL-2 secretion (FIG. 20D).

MTP = molecular target: T1, MTP (Mus musculus, UniProt O08601); assay: Triglyceride transfer assay in splenocyte lysates; assay type: biochemical; conditions: splenocyte lysate with inhibitor added
T1 construct: Splenocyte lysates contained measurable triglyceride transfer activity; endogenous in cells; host or cells: primary mouse splenocytes (crude lysate)
T1 sequence (O08601 22-894): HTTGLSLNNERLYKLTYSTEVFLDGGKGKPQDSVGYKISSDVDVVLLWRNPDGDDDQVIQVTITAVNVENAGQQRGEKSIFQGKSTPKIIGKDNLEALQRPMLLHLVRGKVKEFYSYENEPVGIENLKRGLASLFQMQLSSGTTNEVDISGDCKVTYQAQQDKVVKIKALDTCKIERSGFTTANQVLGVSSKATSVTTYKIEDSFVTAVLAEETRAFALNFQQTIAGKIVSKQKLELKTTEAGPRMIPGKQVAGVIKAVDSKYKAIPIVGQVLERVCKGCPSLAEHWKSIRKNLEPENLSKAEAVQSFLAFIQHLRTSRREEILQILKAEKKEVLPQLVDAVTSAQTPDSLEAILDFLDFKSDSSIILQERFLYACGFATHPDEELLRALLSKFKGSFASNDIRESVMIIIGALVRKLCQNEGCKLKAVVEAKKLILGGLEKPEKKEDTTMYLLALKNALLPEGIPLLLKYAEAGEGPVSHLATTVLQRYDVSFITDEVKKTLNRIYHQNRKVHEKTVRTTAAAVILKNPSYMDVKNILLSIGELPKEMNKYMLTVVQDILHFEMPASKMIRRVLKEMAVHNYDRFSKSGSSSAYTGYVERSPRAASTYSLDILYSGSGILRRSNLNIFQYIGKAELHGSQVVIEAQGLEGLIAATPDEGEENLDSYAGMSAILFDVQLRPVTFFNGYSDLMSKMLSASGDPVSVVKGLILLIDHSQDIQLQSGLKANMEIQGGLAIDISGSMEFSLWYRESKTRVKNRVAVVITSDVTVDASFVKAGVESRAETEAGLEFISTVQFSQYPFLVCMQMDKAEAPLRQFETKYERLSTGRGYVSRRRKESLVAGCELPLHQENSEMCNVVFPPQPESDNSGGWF
T1 sequence (P09103 20-509 partner): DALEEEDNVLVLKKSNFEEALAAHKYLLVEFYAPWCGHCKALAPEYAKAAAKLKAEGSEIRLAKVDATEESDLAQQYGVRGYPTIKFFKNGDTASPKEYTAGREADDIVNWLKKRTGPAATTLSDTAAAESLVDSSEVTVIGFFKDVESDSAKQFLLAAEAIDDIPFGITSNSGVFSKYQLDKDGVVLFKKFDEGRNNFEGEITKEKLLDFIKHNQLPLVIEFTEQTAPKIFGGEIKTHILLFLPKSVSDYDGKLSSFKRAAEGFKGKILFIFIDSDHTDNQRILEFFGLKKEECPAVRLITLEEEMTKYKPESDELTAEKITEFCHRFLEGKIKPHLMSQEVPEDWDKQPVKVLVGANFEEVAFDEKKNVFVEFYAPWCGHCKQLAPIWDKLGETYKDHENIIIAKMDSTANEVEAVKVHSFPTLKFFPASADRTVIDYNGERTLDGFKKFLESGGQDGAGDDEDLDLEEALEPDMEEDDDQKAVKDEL
Protocol: FIG. 15C is a line graph showing triglyceride transfer activity in 100 ug splenocyte lysate (Δ), 50 μg splenocyte lysate (◯), 100 μg splenocyte lysate with BMS197636 (▴), and 50 μg splenocyte lysate with BMS197636 (●). Assays were in triplicate with standard deviations less than 10% of percent transfer at 3 hours.
The triglyceride transfer activity of MTP was measured using donor phospholipids vesicles (Chylos Inc.) as described. PE transfer was done by overnight coating of a microtiter plate with 2 ug per well recombinant murine CD1d purified by baculovirus expression system. Wells were washed with PBS, incubated with PBS containing 0.5% isopropanol for 2 hours at 37° C., and washed again with PBS. […] Fluorescence was read with a fluorescence plate reader (7620 Microplate Fluorimeter; Cambridge Technology, Watertown, Mass.) using 460 nm excitation and 530 nm emission wavelengths.
In this assay, MTP function is assessed by studying the transfer of fluorescently labeled triglycerides embedded in donor phospholipid vesicles to acceptor vesicles. During the transfer, the amount of triglyceride associated with MTP can be measured as an increase in fluorescence over time. […]

“9-[4-[[[4′-(trifluoromethyl)[1,1′-biphenyl]-2-yl]carbonyl]amino]butyl-piperidin-4-yl]-N-(2,2,2-trifluoroethyl)-9H-fluorene-9-carboxamide [BMS197636]” was tested, and the “CD1d-mediated activation of human peripheral blood derived iNKT cell line” value (C1Rd cells) was “dose-dependent inhibition” and the “triglyceride transfer activity of splenocyte lysates” value (MTP) was “abrogated”.
